Assay results taken from US9920339B2, “Methods, reagents and cells for biosynthesizing compounds” (INVISTA North America S.á r.l., priority 2014, dated 2018).

What was measured:
[1] = test system: acetylputrescine deacetylase from Micrococcus luteus K-11; settings: Suzuki et al., 1986; cited from earlier work
[2] = test system: Chromobacterium violaceum ω-transaminase (SEQ ID NO: 8); assay: ω-transaminase enzyme activity assay, amine substrate plus pyruvate to L-alanine (cell free extract); format: biochemical; settings: reverse direction, 10 mM substrate, 10 mM pyruvate, 100 μM pyridoxyl 5′ phosphate, pH 7.5, 25° C., 4 h, L-alanine by RP-HPLC
Protocol: A nucleotide sequence encoding an N-terminal His-tag was added to the genes from Chromobacterium violaceum and Rhodobacter sphaeroides encoding the ω-transaminases of SEQ ID NOs: 8 and 10 respectively (see FIG. 10) such that N-terminal HIS tagged ω-transaminases could be produced. Each of the resulting modified genes was cloned into a pET21a expression vector under control of the T7 promoter and each expression vector was transformed into a BL21[DE3] E. coli host. The resulting recombinant E. coli strains were cultivated at 37° C. in a 250 mL shake flask culture containing 50 mL LB media and antibiotic selection pressure, with shaking at 230 rpm. Each culture was induced overnight at 16° C. using 1 mM IPTG.
(§1) The pellet from each induced shake flask culture was harvested via centrifugation. Each pellet was resuspended and lysed via sonication. The cell debris was separated from the supernatant via centrifugation and the cell free extract was used immediately in enzyme activity assays.
Enzyme activity assays in the reverse direction (i.e., 5-aminopentanoate to glutarate semialdehyde) were performed in a buffer composed of a final concentration of 50 mM HEPES buffer (pH=7.5), 10 mM 5-aminopentanoate, 10 mM pyruvate and 100 μM pyridoxyl 5′ phosphate. Each enzyme activity assay reaction was initiated by adding cell free extract of the ω-transaminase gene product or the empty vector control to the assay buffer containing the 5-aminopentanoate and incubated at 25° C. for 4 h, with shaking at 250 rpm. The formation of L-alanine from pyruvate was quantified via RP-HPLC.
(§2) A nucleotide sequence encoding an N-terminal His-tag was added to the Chromobacterium violaceum, Pseudomonas aeruginosa, Pseudomonas syringae, Rhodobacter sphaeroide, Escherichia coli and Vibrio fluvialis genes encoding the ω-transaminases of SEQ ID NOs: 8-13, respectively (see FIG. 10) such that N-terminal HIS tagged ω-transaminases could be produced. The modified genes were cloned into a pET21a expression vector under the T7 promoter. Each expression vector was transformed into a BL21[DE3] E. coli host. Each resulting recombinant E. coli strain were cultivated at 37° C. in a 250 mL shake flask culture containing 50 mL LB media and antibiotic selection pressure, with shaking at 230 rpm. Each culture was induced overnight at 16° C. using 1 mM IPTG.
(§3) Enzyme activity assays in the reverse direction (i.e., 5-aminopentanol to 5-oxopentanol) were performed in a buffer composed of a final concentration of 50 mM HEPES buffer (pH=7.5), 10 mM 5-aminopentanol, 10 mM pyruvate, and 100 μM pyridoxyl 5′ phosphate. Each enzyme activity assay reaction was initiated by adding cell free extract of the ω-transaminase gene product or the empty vector control to the assay buffer containing the 5-aminopentanol and then incubated at 25° C. for 4 h, with shaking at 250 rpm. The formation of L-alanine was quantified via RP-HPLC.
as §2, with “and” for “Rhodobacter sphaeroide,”, “coli” for “coli and Vibrio fluvialis”, “8-10 and 12,” for “8-13,”
Enzyme activity assays in the reverse direction (i.e., cadaverine to 5-aminopentanal) were performed in a buffer composed of a final concentration of 50 mM HEPES buffer (pH=7.5), 10 mM cadaverine, 10 mM pyruvate, and 100 μM pyridoxyl 5′ phosphate. […]

[3] = test system: Vibrio fluvialis ω-transaminase (SEQ ID NO: 13); assay: as above; format: biochemical; settings: for accepted as substrate as confirmed against the empty vector control: reverse direction, 10 mM substrate, 10 mM pyruvate, 100 μM pyridoxyl 5′ phosphate, pH 7.5, 25° C., 4 h, L-alanine by RP-HPLC; for accepted as substrate, concluded from the reversibility of the ω-transaminase activity: forward (amine-forming) direction, inferred from the reverse assay
Protocol: as §2, §1, §3
(§4) The activity of the N-terminal His-tagged ω-transaminases of SEQ ID NOs: 8, 10-13 (see Example 3, and FIG. 10) for converting N5-acetyl-1,5-diaminopentane to N5-acetyl-5-aminopentanal was assayed using a buffer composed of a final concentration of 50 mM HEPES buffer (pH=7.5), 10 mM N5-acetyl-1,5-diaminopentane, 10 mM pyruvate and 100 μM pyridoxyl 5′ phosphate. Each enzyme activity assay reaction was initiated by adding a cell free extract of the ω-transaminase or the empty vector control to the assay buffer containing the N5-acetyl-1,5-diaminopentane then incubated at 25° C. for 4 h, with shaking at 250 rpm. The formation of L-alanine was quantified via RP-HPLC.
as §4, with “8-13” for “8, 10-13”, “1-aminopentane” for “N5-acetyl-1,5-diaminopentane”, “pentanal” for “N5-acetyl-5-aminopentanal”, “1-aminopentane,” for “N5-acetyl-1,5-diaminopentane,”
as §4, with “8-13” for “8, 10-13”, “1-aminoheptane” for “N5-acetyl-1,5-diaminopentane”, “heptanal” for “N5-acetyl-5-aminopentanal”, “1-aminoheptane,” for “N5-acetyl-1,5-diaminopentane,”

[4] = test system: Rhodobacter sphaeroides ω-transaminase (SEQ ID NO: 11); assay: as above; format: biochemical; settings: for accepted as substrate as confirmed against the empty vector control: reverse direction, 10 mM substrate, 10 mM pyruvate, 100 μM pyridoxyl 5′ phosphate, pH 7.5, 25° C., 4 h, L-alanine by RP-HPLC; for accepted as substrate, concluded from the reversibility of the ω-transaminase activity: forward (amine-forming) direction, inferred from the reverse assay
Protocol: as §2, §1, §3, §4
as §4, with “8-13” for “8, 10-13”, “1-aminopentane” for “N5-acetyl-1,5-diaminopentane”, “pentanal” for “N5-acetyl-5-aminopentanal”, “1-aminopentane,” for “N5-acetyl-1,5-diaminopentane,”
as §4, with “8-13” for “8, 10-13”, “1-aminoheptane” for “N5-acetyl-1,5-diaminopentane”, “heptanal” for “N5-acetyl-5-aminopentanal”, “1-aminoheptane,” for “N5-acetyl-1,5-diaminopentane,”

[5] = test system: Pseudomonas syringae ω-transaminase (SEQ ID NO: 10); assay: as above; format: biochemical; settings: for accepted as substrate as confirmed against the empty vector control: reverse direction, 10 mM substrate, 10 mM pyruvate, 100 μM pyridoxyl 5′ phosphate, pH 7.5, 25° C., 4 h, L-alanine by RP-HPLC; for accepted as substrate, concluded from the reversibility of the ω-transaminase activity: forward (amine-forming) direction, inferred from the reverse assay
Protocol: as §2, §1, §3
as §2, with “and” for “Rhodobacter sphaeroide,”, “coli” for “coli and Vibrio fluvialis”, “8-10 and 12,” for “8-13,”
(§5) Enzyme activity assays in the reverse direction (i.e., cadaverine to 5-aminopentanal) were performed in a buffer composed of a final concentration of 50 mM HEPES buffer (pH=7.5), 10 mM cadaverine, 10 mM pyruvate, and 100 μM pyridoxyl 5′ phosphate. Each enzyme activity assay reaction was initiated by adding cell free extract of the ω-transaminase gene product or the empty vector control to the assay buffer containing the cadaverine and then incubated at 25° C. for 4 h, with shaking at 250 rpm. The formation of L-alanine was quantified via RP-HPLC.
as §4
(§6) The activity of the N-terminal His-tagged ω-transaminases of SEQ ID NOs: 8-13 (see Example 3, and FIG. 10) for converting 1-aminopentane to pentanal was assayed using a buffer composed of a final concentration of 50 mM HEPES buffer (pH=7.5), 10 mM 1-aminopentane, 10 mM pyruvate and 100 μM pyridoxyl 5′ phosphate. […]

[6] = biological target: T1, Escherichia coli ω-transaminase (SEQ ID NO: 12) (Escherichia coli, UniProt P42588); assay: as above; format: biochemical; settings: for accepted as substrate as confirmed against the empty vector control: reverse direction, 10 mM substrate, 10 mM pyruvate, 100 μM pyridoxyl 5′ phosphate, pH 7.5, 25° C., 4 h, L-alanine by RP-HPLC; for accepted as substrate, concluded from the reversibility of the ω-transaminase activity: forward (amine-forming) direction, inferred from the reverse assay
T1 construct: His-tag (N); made in house; host or cells: E. coli BL21[DE3], pET21a
Protocol: as §2, §1, §3
as §2, with “and” for “Rhodobacter sphaeroide,”, “coli” for “coli and Vibrio fluvialis”, “8-10 and 12,” for “8-13,”
as §5, §4, §6

[7] = test system: Pseudomonas aeruginosa ω-transaminase (SEQ ID NO: 9); assay: as above; format: biochemical; settings: for accepted as substrate, concluded from the reversibility of the ω-transaminase activity: forward (amine-forming) direction, inferred from the reverse assay; for accepted as substrate as confirmed against the empty vector control: reverse direction, 10 mM substrate, 10 mM pyruvate, 100 μM pyridoxyl 5′ phosphate, pH 7.5, 25° C., 4 h, L-alanine by RP-HPLC
Protocol: as §2, §1, §3
as §2, with “and” for “Rhodobacter sphaeroide,”, “coli” for “coli and Vibrio fluvialis”, “8-10 and 12,” for “8-13,”
as §5
as §4, with “8-13” for “8, 10-13”, “1-aminopentane” for “N5-acetyl-1,5-diaminopentane”, “pentanal” for “N5-acetyl-5-aminopentanal”, “1-aminopentane,” for “N5-acetyl-1,5-diaminopentane,”
The activity of the N-terminal His-tagged ω-transaminases of SEQ ID NOs: 8-13 (see Example 3, and FIG. 10) for converting 1-aminoheptane to heptanal was assayed using a buffer composed of a final concentration of 50 mM HEPES buffer (pH=7.5), 10 mM 1-aminoheptane, 10 mM pyruvate and 100 μM pyridoxyl 5′ phosphate. […]

[8] = test system: Chromobacterium violaceum ω-transaminase (SEQ ID NO: 8); assay: as above; format: biochemical; settings: forward (amine-forming) direction, inferred from the reverse assay
[9] = biological target: gene product of ygjG (Escherichia coli, UniProt P42588); settings: Samsonova et al., 2003; cited from earlier work
Chain of gene product of ygjG (P42588 whole entry): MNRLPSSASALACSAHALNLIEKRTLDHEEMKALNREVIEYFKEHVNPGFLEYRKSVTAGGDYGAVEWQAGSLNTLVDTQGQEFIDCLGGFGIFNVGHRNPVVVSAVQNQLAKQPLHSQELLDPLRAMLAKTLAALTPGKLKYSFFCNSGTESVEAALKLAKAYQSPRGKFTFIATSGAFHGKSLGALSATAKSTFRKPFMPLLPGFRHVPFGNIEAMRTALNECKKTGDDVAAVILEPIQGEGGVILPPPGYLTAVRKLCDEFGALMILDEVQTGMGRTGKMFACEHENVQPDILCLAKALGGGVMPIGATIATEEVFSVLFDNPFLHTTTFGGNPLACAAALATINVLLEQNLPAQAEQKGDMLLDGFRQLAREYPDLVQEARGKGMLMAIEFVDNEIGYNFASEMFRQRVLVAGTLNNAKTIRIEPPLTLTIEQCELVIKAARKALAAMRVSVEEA

T1 sequence (P42588 whole entry): as above

Question: Which accepted as substrate [1] does the source give for `CC(=O)NCCCCCN` [acetylcadaverine] here?
Answer: accepts

Question: With `NCCCCC(=O)O` [5-aminopentanoate] as the compound, how does the “accepted as substrate as confirmed against the empty vector control” value (“accepted as substrate as confirmed” below) [2] read?
Answer: accepted

Question: What does the source list for `CC(=O)NCCCCCN` [N5-acetyl-1,5-diaminopentane]?
Answer: accepted as substrate as confirmed against the empty vector control [3]: accepted; accepted as substrate as confirmed against the empty vector control [4]: accepted; accepted as substrate as confirmed against the empty vector control [2]: accepted; accepted as substrate as confirmed against the empty vector control [5]: accepted; accepted as substrate as confirmed against the empty vector control [6]: accepted

Question: What does the source list for `NCCCCC=O` [5-aminopentanal]?
Answer: accepted as substrate, concluded from the reversibility of the ω-transaminase activity [7]: accept; accepted as substrate, concluded from the reversibility of the ω-transaminase activity [5]: accept; accepted as substrate, concluded from the reversibility of the ω-transaminase activity [6]: accept; accepted as substrate, concluded from the reversibility of the ω-transaminase activity [8]: accept

Question: For `O=CCCCCO` [5-oxopentanol], which “accepted as substrate, concluded from the reversibility of the ω-transaminase activity” value (“accepted as substrate, concluded” below) [3] is on record?
Answer: accept

Question: What about the “accepted as substrate, concluded” value [4] of the same compound?
Answer: accept

Question: What about the “accepted as substrate, concluded” value [7] of the same compound?
Answer: accept

Question: And the “accepted as substrate, concluded” value [5]?
Answer: accept

Question: And the “accepted as substrate, concluded” value [6]?
Answer: accept

Question: What about the “accepted as substrate, concluded” value [8] of the same compound?
Answer: accept

Question: With `CC(=O)NCCCCN` [acetylputrescine] as the compound, how does the accepted as substrate [1] read?
Answer: accepts

Question: For `NCCCCN` [putrescine], which “accepted as diamine substrate” value [9] is on record?
Answer: accepts

Question: Which accepted as substrate [1] does the source give for `CC(=O)NCCCCNCCCN` [N^8-acetylspermidine] here?
Answer: accepts

Question: For `CC(=O)NCCCCC=O` [N5-acetyl-5-aminopentanal], which “accepted as substrate, concluded” value [3] is on record?
Answer: accept

Question: What about the “accepted as substrate, concluded” value [4] of the same compound?
Answer: accept

Question: And the “accepted as substrate, concluded” value [5]?
Answer: accept

Question: And the “accepted as substrate, concluded” value [6]?
Answer: accept

Question: And the “accepted as substrate, concluded” value [8]?
Answer: accept

Question: With `CCCCCN` [1-aminopentane] as the compound, how does the “accepted as substrate as confirmed” value [3] read?
Answer: accepted

Question: And the “accepted as substrate as confirmed” value [4]?
Answer: accepted

Question: What about the “accepted as substrate as confirmed” value [2] of the same compound?
Answer: accepted

Question: And the “accepted as substrate as confirmed” value [7]?
Answer: accepted

Question: What about the “accepted as substrate as confirmed” value [5] of the same compound?
Answer: accepted

Question: And the “accepted as substrate as confirmed” value [6]?
Answer: accepted

Question: Which results are given for `NCCCCCO` [5-aminopentanol]?
Answer: accepted as substrate as confirmed against the empty vector control [3]: accepted; accepted as substrate as confirmed against the empty vector control [4]: accepted; accepted as substrate as confirmed against the empty vector control [2]: accepted; accepted as substrate as confirmed against the empty vector control [7]: accepted; accepted as substrate as confirmed against the empty vector control [5]: accepted; accepted as substrate as confirmed against the empty vector control [6]: accepted

Question: Which “accepted as diamine substrate” value [9] does the source give for `NCCCCNCCCN` [spermidine] here?
Answer: accepts

Question: With `CCCCCCCN` [1-aminoheptane] as the compound, how does the “accepted as substrate as confirmed” value [3] read?
Answer: accepted

Question: And the “accepted as substrate as confirmed” value [4]?
Answer: accepted

Question: What about the “accepted as substrate as confirmed” value [2] of the same compound?
Answer: accepted

Question: What about the “accepted as substrate as confirmed” value [7] of the same compound?
Answer: accepted

Question: What about the “accepted as substrate as confirmed” value [5] of the same compound?
Answer: accepted

Question: And the “accepted as substrate as confirmed” value [6]?
Answer: accepted
